# Key:
# [1] = system: MDA-MB-231; experiment: Boyden chamber migration of triple negative breast cancer cells; type: cell-based; details: MDA-MB-231 pre-incubated 1 hour with 10 μM; cl-CD95L 100 ng/mL for 24 h
# Method: Boyden chambers contained membranes with a pore size of 8 μm (Millipore, Molsheim, France). After hydration of the membranes, breast cancer cells (10^5 cells per chamber) were added to the top chamber in low serum (1%)-containing medium. The bottom chamber was filled with low serum (1%)-containing medium in the presence or absence of cl-CD95L (100 ng/mL). Cells were cultured for 24 h at 37° C. To quantify migration, cells were mechanically removed from the top-side of the membrane using a cotton-tipped swab, and migrating cells from the reverse side were fixed with methanol and stained with Giemsa. For each experiment, five representative pictures were taken for each insert, then cells were lyzed and absorbance at 560 nm correlated to the amount of Giemsa stain was measured.
# [2] = system: CD95-mediated Ca^2+ response; experiment: Calcium response to cl-CD95L in CEM cells; type: cell-based; details: CEM pre-incubated 1 hr, 10 μM peptide, 100 ng/ml cl-CD95L
# Method: Cells were loaded with Fura2-AM (1 μM) at resting temperature for 30 min in Hank's Balanced Salt Solution (HBSS). After washing with HBSS, the cells were incubated for 15 min in the absence of Fura2-AM to complete de-esterification of the dye. Cells were placed in a thermostated chamber (37° C.) of an inverted epifluorescence microscope (Olympus IX70) equipped with a ×40, UApo/340-1.15 W water-immersion objective (Olympus), and fluorescence micrograph images were captured at 510 nm and at 12-bit resolution by a fast-scan camera (CoolSNAP fx Monochrome, Photometrics). To minimize UV light exposure, 4×4 binning function was used. […]
# T cells were loaded with Fura-PE3-AM (1 μM) at room temperature for 30 min in Hank's Balanced Salt Solution (HBSS). […] Cells were placed in the temperature controlled chamber (37° C.) of an inverted epifluorescence microscope (Olympus IX70) equipped with an ×40 UApo/340-1.15 W water-immersion objective (Olympus), and fluorescence micrograph images were captured at 510 nm and 12-bit resolution by a fast-scan camera (CoolSNAP fx Monochrome, Photometrics). […] The Fura-PE3 ratio (Fratio 340/380) images were analyzed offline with Universal Imaging software, including Metafluor and Metamorph. […] Each experiment was repeated 3 times, and the average of more than 20 single-cell traces was analyzed.
# [3] = system: CD95-mediated Ca^2+ response; experiment: Calcium response to cl-CD95L in activated PBL; type: cell-based, human; details: activated PBL pre-incubated 1 hr, 10 μM peptide, 100 ng/ml cl-CD95L
# Method: Cells were loaded with Fura2-AM (1 μM) at resting temperature for 30 min in Hank's Balanced Salt Solution (HBSS). After washing with HBSS, the cells were incubated for 15 min in the absence of Fura2-AM to complete de-esterification of the dye. Cells were placed in a thermostated chamber (37° C.) of an inverted epifluorescence microscope (Olympus IX70) equipped with a ×40, UApo/340-1.15 W water-immersion objective (Olympus), and fluorescence micrograph images were captured at 510 nm and at 12-bit resolution by a fast-scan camera (CoolSNAP fx Monochrome, Photometrics). To minimize UV light exposure, 4×4 binning function was used. Fura2-AM was alternately excited at 340 and 380 nm, and ratios of the resulting images (excitations at 340 and 380 nm and emission filter at 520 nm) were produced at constant intervals (5 s or 10 s according to the stimulus). […] Fluorescent images were pseudocolored using the IMD display mode in MetaFluor and assembled without further manipulation in Photoshop (Adobe). Raw data were acquired with MetaFluor and graphed in Origin (OriginLab). [Ca^2+]i was calculated using the following equation: [Ca^2+]i=Kd(R−Rmin)/(R−Rmax)×Sf2/Sf1, where Kd is the Fura2-AM dissociation constant at the two excitation wavelengths (F340/F380); Rmin is the fluorescence ratio in the presence of minimal calcium, obtained by chelating Ca^2+ with 10 mM EGTA; Rmax is the fluorescence ratio in the presence of excess calcium, obtained by treating cells with 1 μM ionomycin; Sf2 is the fluorescence of the Ca^2+-free form; and Sf1 is the fluorescence of the Ca^2+-bound form of Fura2-AM at excitation wavelengths of 380 and 340 nm, respectively. In some experiments cells were placed in a Ca^2+-free medium consisting of the HBSS described above in which CaCl2 was omitted and 100 μM EGTA was added in order to chelate residual Ca^2+ ions. This medium was added to the cells just before recording to avoid leak of the intracellular calcium stores.
# All cells were purchased from ATCC (Molsheim Cedex, France). T leukemic cell lines CEM, H9 and Jurkat were cultured in RPMI supplemented with 8% heat-inactivated FCS (v/v) and 2 mM L-glutamine at 37° C. in a 5% CO2 incubator. CEM-IRC cell expressing a low amount of plasma membrane CD95 was described in (Beneteau et al., 2007; Beneteau et al., 2008). […]
# T cells were loaded with Fura-PE3-AM (1 μM) at room temperature for 30 min in Hank's Balanced Salt Solution (HBSS). […] Cells were placed in the temperature controlled chamber (37° C.) of an inverted epifluorescence microscope (Olympus IX70) equipped with an ×40 UApo/340-1.15 W water-immersion objective (Olympus), and fluorescence micrograph images were captured at 510 nm and 12-bit resolution by a fast-scan camera (CoolSNAP fx Monochrome, Photometrics). […]
# [4] = system: CD95-mediated Ca^2+ response; experiment: Calcium response to cl-CD95L in MDA MB 231 cells; type: cell-based; details: MDA MB 231 pre-incubated 1 hr, 10 μM peptide; 100 ng/ml cl-CD95L
# Method: Cells were loaded with Fura2-AM (1 μM) at resting temperature for 30 min in Hank's Balanced Salt Solution (HBSS). After washing with HBSS, the cells were incubated for 15 min in the absence of Fura2-AM to complete de-esterification of the dye. Cells were placed in a thermostated chamber (37° C.) of an inverted epifluorescence microscope (Olympus IX70) equipped with a ×40, UApo/340-1.15 W water-immersion objective (Olympus), and fluorescence micrograph images were captured at 510 nm and at 12-bit resolution by a fast-scan camera (CoolSNAP fx Monochrome, Photometrics). To minimize UV light exposure, 4×4 binning function was used. Fura2-AM was alternately excited at 340 and 380 nm, and ratios of the resulting images (excitations at 340 and 380 nm and emission filter at 520 nm) were produced at constant intervals (5 s or 10 s according to the stimulus). […] Fluorescent images were pseudocolored using the IMD display mode in MetaFluor and assembled without further manipulation in Photoshop (Adobe). Raw data were acquired with MetaFluor and graphed in Origin (OriginLab). […]
substance,measurement,setting,value
TAT-CID: cell penetrating peptide linking the 36-amino acid-stretch of CID (CD95 residues 175 to 210) to the HIV-TAT sequence; SEQ ID NO: 6 (RKKRRQRRRKRKEVQKTCRKHRKENQGSHESPTLNPETVAINLSD; TAT-CID),cell migration (Boyden chamber assay),[1],inhibits migration
same,calcium response to cl-CD95L,[2],abolished the induction of the CD95-mediated Ca^2+ signal
same,calcium response to cl-CD95L,[2]; listed as TAT CID 175-210,completely abolished the calcium response
same,calcium response to cl-CD95L,[3],abrogated the CD95-mediated Ca^2+ response
same,calcium response to cl-CD95L,[3]; listed as TAT CID 175-210,greatly reduced the calcium response
same,calcium response to cl-CD95L,[4],completely abolished the calcium response

# Source: US10189887B2, “Polypeptides and uses thereof for reducing CD95-mediated cell motility” (INSERM (INSTITUT NATIONAL DE LA SANTÉ ET DE LA RECHERCHE …, priority 2014, dated 2019)
